ChEMBL document CHEMBL4507264, “Data for DCP probe BAY-7598” (2021)

How the values were obtained:
[1] = target: Serine/threonine-protein kinase 32C (Homo sapiens) (UniProt Q86UX6); conditions: Compound concentration 1000.0 nM
[2] = target: Mitogen-activated protein kinase 7 (Homo sapiens) (UniProt Q13164); conditions: Compound concentration 1000.0 nM
[3] = target: Dual specificity testis-specific protein kinase 1 (Homo sapiens) (UniProt Q15569); conditions: Compound concentration 1000.0 nM
[4] = target: Wee1-like protein kinase (Homo sapiens) (UniProt P30291); conditions: Compound concentration 1000.0 nM
[5] = tested on: Epidermal growth factor receptor (Homo sapiens), P00533 [G719S]; conditions: Compound concentration 1000.0 nM
[6] = target: Casein kinase I isoform epsilon (Homo sapiens) (UniProt P49674); conditions: Compound concentration 1000.0 nM
Chain of Casein kinase I isoform epsilon (Homo sapiens) (P49674 whole entry, looked up, canonical isoform): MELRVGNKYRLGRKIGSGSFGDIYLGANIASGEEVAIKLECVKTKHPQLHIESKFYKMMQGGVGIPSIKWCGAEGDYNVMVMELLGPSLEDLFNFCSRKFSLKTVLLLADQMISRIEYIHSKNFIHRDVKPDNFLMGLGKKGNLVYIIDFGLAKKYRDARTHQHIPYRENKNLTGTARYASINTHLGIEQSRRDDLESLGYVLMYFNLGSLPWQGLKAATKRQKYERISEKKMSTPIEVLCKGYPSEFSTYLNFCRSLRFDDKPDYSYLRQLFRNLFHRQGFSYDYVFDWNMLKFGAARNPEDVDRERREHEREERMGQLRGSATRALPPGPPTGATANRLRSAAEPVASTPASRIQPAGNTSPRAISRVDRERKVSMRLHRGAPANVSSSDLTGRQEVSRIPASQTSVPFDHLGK

[7] = target: Homeodomain-interacting protein kinase 3 (Homo sapiens) (UniProt Q9H422); conditions: Compound concentration 1000.0 nM
Chain of Homeodomain-interacting protein kinase 3 (Homo sapiens) (Q9H422 whole entry, looked up): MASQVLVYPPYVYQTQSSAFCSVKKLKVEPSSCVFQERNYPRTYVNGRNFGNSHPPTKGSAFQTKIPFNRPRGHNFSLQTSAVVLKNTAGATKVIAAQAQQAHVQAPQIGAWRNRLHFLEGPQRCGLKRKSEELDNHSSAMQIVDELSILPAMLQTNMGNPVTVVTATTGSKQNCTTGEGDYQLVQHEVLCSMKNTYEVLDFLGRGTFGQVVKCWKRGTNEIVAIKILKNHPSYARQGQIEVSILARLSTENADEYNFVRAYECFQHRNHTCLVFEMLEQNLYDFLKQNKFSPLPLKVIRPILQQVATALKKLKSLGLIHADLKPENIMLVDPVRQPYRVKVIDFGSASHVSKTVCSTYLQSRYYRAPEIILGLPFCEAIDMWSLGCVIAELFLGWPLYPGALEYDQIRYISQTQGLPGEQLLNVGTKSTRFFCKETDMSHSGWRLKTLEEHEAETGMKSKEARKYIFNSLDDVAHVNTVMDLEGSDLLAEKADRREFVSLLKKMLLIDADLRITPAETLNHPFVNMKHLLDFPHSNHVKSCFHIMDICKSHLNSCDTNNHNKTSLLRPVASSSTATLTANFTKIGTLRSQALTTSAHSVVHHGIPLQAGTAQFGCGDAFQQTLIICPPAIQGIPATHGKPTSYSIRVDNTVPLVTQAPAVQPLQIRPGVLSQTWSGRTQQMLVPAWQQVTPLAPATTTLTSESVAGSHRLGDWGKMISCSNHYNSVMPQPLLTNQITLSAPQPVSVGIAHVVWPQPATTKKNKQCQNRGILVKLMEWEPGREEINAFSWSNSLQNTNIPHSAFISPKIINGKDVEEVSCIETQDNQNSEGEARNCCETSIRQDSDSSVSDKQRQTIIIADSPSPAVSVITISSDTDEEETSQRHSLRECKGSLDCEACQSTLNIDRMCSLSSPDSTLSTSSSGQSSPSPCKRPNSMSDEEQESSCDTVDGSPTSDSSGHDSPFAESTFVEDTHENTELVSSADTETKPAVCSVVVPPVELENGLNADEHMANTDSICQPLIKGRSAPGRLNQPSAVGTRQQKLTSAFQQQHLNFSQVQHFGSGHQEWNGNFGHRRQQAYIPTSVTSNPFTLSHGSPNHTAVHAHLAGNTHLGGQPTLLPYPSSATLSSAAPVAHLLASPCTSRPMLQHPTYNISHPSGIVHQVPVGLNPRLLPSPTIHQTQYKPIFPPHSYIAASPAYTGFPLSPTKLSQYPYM

[8] = target: Ephrin type-A receptor 8 (Homo sapiens) (UniProt P29322); conditions: Compound concentration 1000.0 nM
[9] = tested on: Epidermal growth factor receptor (Homo sapiens), P00533 [UNDEFINED MUTATION]; conditions: Compound concentration 1000.0 nM
[10] = tested on: Mast/stem cell growth factor receptor Kit (Homo sapiens), P10721 [L576P]; conditions: Compound concentration 1000.0 nM
Chain of Mast/stem cell growth factor receptor Kit (Homo sapiens), P10721 [L576P] (P10721 whole entry L576P): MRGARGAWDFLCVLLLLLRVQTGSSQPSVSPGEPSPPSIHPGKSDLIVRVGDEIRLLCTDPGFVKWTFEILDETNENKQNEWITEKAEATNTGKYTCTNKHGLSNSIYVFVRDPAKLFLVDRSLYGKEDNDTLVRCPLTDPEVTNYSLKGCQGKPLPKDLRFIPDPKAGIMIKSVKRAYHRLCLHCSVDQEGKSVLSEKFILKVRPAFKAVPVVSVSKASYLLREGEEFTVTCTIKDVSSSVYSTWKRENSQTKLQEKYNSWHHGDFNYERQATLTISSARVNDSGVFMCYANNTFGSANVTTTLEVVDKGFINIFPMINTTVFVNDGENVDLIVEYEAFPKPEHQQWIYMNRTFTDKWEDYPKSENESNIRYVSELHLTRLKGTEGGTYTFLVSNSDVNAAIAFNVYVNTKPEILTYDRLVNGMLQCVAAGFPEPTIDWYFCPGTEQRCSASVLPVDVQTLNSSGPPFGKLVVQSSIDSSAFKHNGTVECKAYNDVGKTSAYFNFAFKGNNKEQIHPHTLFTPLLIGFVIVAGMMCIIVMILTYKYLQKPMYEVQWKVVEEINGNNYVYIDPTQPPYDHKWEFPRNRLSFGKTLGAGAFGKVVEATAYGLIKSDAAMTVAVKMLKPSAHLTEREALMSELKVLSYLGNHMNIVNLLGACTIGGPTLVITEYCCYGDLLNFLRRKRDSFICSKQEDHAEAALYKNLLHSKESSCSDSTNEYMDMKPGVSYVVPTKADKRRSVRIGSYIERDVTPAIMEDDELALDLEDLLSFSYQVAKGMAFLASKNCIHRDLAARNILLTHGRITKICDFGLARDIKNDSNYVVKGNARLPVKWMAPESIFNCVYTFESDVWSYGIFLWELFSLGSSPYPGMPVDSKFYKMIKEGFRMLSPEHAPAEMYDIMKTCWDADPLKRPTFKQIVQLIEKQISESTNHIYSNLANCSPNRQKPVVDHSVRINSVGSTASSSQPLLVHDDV

[11] = target: Mast/stem cell growth factor receptor Kit (Homo sapiens) (UniProt P10721); conditions: Compound concentration 1000.0 nM
Chain of Mast/stem cell growth factor receptor Kit (Homo sapiens) (P10721 whole entry): as the sequence (P10721 whole entry L576P) above, with P576L counted along it

[12] = target: Insulin-like growth factor 1 receptor (Homo sapiens) (UniProt P08069); conditions: Compound concentration 1000.0 nM
[13] = target: Serine/threonine-protein kinase PAK 5 (Homo sapiens) (UniProt Q9P286); conditions: Compound concentration 1000.0 nM
Chain of Serine/threonine-protein kinase PAK 5 (Homo sapiens) (Q9P286 whole entry, looked up): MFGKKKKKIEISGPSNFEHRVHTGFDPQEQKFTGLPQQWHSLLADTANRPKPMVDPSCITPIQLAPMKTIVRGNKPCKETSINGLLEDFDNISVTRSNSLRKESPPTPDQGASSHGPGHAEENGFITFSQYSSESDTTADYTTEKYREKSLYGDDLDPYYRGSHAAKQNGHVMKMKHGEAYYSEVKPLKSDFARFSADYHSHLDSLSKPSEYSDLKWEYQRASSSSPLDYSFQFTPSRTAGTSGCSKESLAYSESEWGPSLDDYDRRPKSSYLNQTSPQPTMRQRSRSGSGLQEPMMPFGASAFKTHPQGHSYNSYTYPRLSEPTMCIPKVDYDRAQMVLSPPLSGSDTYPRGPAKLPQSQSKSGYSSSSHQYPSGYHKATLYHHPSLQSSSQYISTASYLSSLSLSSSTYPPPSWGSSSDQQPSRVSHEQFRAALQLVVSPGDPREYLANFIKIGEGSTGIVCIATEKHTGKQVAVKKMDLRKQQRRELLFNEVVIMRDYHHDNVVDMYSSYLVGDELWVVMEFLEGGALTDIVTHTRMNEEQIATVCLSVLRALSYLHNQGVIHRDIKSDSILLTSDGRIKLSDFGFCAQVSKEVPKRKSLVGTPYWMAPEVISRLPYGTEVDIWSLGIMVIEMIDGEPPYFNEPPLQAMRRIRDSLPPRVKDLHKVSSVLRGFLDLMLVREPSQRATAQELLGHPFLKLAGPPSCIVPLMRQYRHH

[14] = target: 5-hydroxytryptamine receptor 1B (Homo sapiens) (UniProt P28222); conditions: Compound concentration 10.0 uM
[15] = target: Calcium/calmodulin-dependent protein kinase type 1B (Homo sapiens) (UniProt Q6P2M8); conditions: Compound concentration 1000.0 nM
[16] = target: Dual specificity mitogen-activated protein kinase kinase 2 (Homo sapiens) (UniProt P36507); conditions: Compound concentration 1000.0 nM
[17] = target: Tyrosine-protein kinase Blk (Homo sapiens) (UniProt P51451); conditions: Compound concentration 1000.0 nM
[18] = target: Casein kinase I isoform alpha-like (Homo sapiens) (UniProt Q8N752); conditions: Compound concentration 1000.0 nM
[19] = target: Serine/threonine-protein kinase BRSK2 (Homo sapiens) (UniProt Q8IWQ3); conditions: Compound concentration 1000.0 nM
[20] = target: Glycogen synthase kinase-3 alpha (Homo sapiens) (UniProt P49840); conditions: Compound concentration 1000.0 nM
[21] = tested on: Hepatocyte growth factor receptor (Homo sapiens), P08581 [Y1235D]; conditions: Compound concentration 1000.0 nM
[22] = target: Serine/threonine-protein kinase pim-2 (Homo sapiens) (UniProt Q9P1W9); conditions: Compound concentration 1000.0 nM
[23] = target: SRSF protein kinase 1 (Homo sapiens) (UniProt Q96SB4); conditions: Compound concentration 1000.0 nM
[24] = target: Rhodopsin kinase GRK7 (Homo sapiens) (UniProt Q8WTQ7); conditions: Compound concentration 1000.0 nM
[25] = target: Serine/threonine-protein kinase 24 (Homo sapiens) (UniProt Q9Y6E0); conditions: Compound concentration 1000.0 nM
[26] = target: Cyclin-dependent kinase 9 (Homo sapiens) (UniProt P50750); conditions: Compound concentration 1000.0 nM
[27] = target: STE20/SPS1-related proline-alanine-rich protein kinase (Homo sapiens) (UniProt Q9UEW8); conditions: Compound concentration 1000.0 nM
[28] = target: Serine/threonine-protein kinase WNK1 (Homo sapiens) (UniProt Q9H4A3); conditions: Compound concentration 1000.0 nM
[29] = target: AP2-associated protein kinase 1 (Homo sapiens) (UniProt Q2M2I8); conditions: Compound concentration 1000.0 nM
[30] = target: Serine/threonine-protein kinase MARK1 (Homo sapiens) (UniProt Q9P0L2); conditions: Compound concentration 1000.0 nM
Chain of Serine/threonine-protein kinase MARK1 (Homo sapiens) (Q9P0L2 whole entry, looked up): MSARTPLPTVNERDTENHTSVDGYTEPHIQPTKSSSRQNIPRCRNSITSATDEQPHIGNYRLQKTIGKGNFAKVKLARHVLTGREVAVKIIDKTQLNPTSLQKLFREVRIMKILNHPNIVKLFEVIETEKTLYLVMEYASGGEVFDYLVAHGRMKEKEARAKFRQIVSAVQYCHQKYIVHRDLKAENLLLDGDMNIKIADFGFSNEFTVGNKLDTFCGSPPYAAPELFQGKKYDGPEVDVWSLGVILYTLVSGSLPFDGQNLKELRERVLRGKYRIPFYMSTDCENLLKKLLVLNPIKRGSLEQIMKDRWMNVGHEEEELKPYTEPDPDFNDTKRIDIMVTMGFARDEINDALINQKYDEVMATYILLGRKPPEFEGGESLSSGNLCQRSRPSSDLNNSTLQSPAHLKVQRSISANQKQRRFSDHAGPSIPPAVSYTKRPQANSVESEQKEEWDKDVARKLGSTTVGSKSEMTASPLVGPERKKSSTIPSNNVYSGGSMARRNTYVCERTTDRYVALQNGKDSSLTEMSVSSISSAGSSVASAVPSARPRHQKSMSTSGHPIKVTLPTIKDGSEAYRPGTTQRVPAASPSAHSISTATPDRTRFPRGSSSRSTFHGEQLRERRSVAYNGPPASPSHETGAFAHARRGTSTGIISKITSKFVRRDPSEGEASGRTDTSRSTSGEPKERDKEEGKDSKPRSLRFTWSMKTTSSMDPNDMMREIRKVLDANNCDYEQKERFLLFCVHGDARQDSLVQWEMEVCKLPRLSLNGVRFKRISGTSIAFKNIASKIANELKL

[31] = target: Receptor-type tyrosine-protein kinase FLT3 (Homo sapiens) (UniProt P36888); conditions: Compound concentration 1000.0 nM
[32] = target: Sigma non-opioid intracellular receptor 1 (Homo sapiens) (UniProt Q99720); conditions: Compound concentration 10.0 uM
[33] = target: Serine/threonine-protein kinase D1 (Homo sapiens) (UniProt Q15139); conditions: Compound concentration 1000.0 nM
[34] = target: Serine/threonine-protein kinase tousled-like 1 (Homo sapiens) (UniProt Q9UKI8); conditions: Compound concentration 1000.0 nM
[35] = target: Tyrosine-protein kinase ABL2 (Homo sapiens) (UniProt P42684); conditions: Compound concentration 1000.0 nM
[36] = target: Cyclin-dependent kinase 5 (Homo sapiens) (UniProt Q00535); conditions: Compound concentration 1000.0 nM
[37] = target: Casein kinase I isoform alpha (Homo sapiens) (UniProt P48729); conditions: Compound concentration 1000.0 nM
[38] = target: Mitogen-activated protein kinase kinase kinase kinase 1 (Homo sapiens) (UniProt Q92918); conditions: Compound concentration 1000.0 nM
[39] = target: Insulin receptor-related protein (Homo sapiens) (UniProt P14616); conditions: Compound concentration 1000.0 nM
[40] = target: Serine/threonine-protein kinase 32B (Homo sapiens) (UniProt Q9NY57); conditions: Compound concentration 1000.0 nM
[41] = target: Tyrosine-protein kinase Fer (Homo sapiens) (UniProt P16591); conditions: Compound concentration 1000.0 nM
[42] = tested on: Phosphatidylinositol 4,5-bisphosphate 3-kinase catalytic subunit alpha isoform (Homo sapiens), P42336 [H1047L]; conditions: Compound concentration 1000.0 nM
[43] = target: Ribosomal protein S6 kinase alpha-6 (Homo sapiens) (UniProt Q9UK32); conditions: Compound concentration 1000.0 nM
Chain of Ribosomal protein S6 kinase alpha-6 (Homo sapiens) (Q9UK32 whole entry): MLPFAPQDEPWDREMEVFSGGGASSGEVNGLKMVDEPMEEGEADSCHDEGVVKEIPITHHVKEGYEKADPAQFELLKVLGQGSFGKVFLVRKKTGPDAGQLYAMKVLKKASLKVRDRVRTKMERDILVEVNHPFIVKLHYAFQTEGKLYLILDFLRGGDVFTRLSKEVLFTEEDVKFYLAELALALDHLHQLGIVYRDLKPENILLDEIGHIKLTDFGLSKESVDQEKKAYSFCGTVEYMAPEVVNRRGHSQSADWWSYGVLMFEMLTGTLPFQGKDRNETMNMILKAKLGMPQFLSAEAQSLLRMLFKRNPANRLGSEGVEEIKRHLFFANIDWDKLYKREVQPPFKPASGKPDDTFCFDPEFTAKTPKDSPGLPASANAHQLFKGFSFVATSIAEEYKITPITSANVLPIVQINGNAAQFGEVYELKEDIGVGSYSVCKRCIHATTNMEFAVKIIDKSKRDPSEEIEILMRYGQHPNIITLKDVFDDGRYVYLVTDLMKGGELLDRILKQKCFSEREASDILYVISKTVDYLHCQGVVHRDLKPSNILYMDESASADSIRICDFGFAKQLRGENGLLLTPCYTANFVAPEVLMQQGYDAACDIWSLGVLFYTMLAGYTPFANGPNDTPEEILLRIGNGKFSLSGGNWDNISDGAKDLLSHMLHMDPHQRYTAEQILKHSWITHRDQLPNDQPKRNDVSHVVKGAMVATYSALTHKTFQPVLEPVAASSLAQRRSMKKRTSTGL

[44] = target: Serine/threonine-protein kinase MRCK alpha (Homo sapiens) (UniProt Q5VT25); conditions: Compound concentration 1000.0 nM
[45] = tested on: eIF-2-alpha kinase GCN2 (Homo sapiens), Q9P2K8 [S808G]; conditions: Compound concentration 1000.0 nM

For `O=C(O)[C@@H]1[C@@H](Cn2nnc3ccccc3c2=O)CC[C@H]1C(=O)c1ccc(OCCC2CCOCC2)cc1` [BAY-694], the residual activity [1] was 100%, the residual activity [2] was 100% and the residual activity [3] was 94%. The residual activity [4] was 93%, the residual activity [5] was 88% and the residual activity [6] was 90%. For the same molecule, the residual activity [7] was 100%, the residual activity [8] was 99% and the residual activity [9] was 58%. The residual activity [10] was 100%, the residual activity [11] was 89% and the residual activity [12] was 100%. For the same molecule, the residual activity [13] was 96%, the inhibition [14] was 8.05% and the residual activity [15] was 67%. The residual activity [16] was 100%, the residual activity [17] was 95% and the residual activity [18] was 100%. The residual activity [19] was 100%, the residual activity [20] was 93% and the residual activity [21] was 98%. For the same molecule, the residual activity [22] was 94%, the residual activity [23] was 100% and the residual activity [24] was 100%. For the same molecule, the residual activity [25] was 99%, the residual activity [26] was 100% and the residual activity [27] was 96%. The residual activity [28] was 100%, the residual activity [29] was 100% and the residual activity [30] was 100%. For the same molecule, the residual activity [31] was 86%, the inhibition [32] was 29.3% and the residual activity [33] was 100%. It also gave a residual activity [34] of 100%, a residual activity [35] of 92% and a residual activity [36] of 81%. The residual activity [37] was 97%, the residual activity [38] was 91% and the residual activity [39] was 100%. The residual activity [40] was 100%, the residual activity [41] was 87% and the residual activity [42] was 84%. For the same molecule, the residual activity [43] was 100%, the residual activity [44] was 91% and the residual activity [45] was 100%.

`O=C(O)[C@H]1[C@H](Cn2nnc3ccccc3c2=O)CC[C@@H]1C(=O)c1ccc(OCCC2CCOCC2)cc1` [BAY-7598] showed a residual activity [1] of 89%, a residual activity [2] of 100% and a residual activity [3] of 100%. For the same molecule, the residual activity [4] was 100%, the residual activity [5] was 87% and the residual activity [6] was 100%. It also gave a residual activity [7] of 99%, a residual activity [8] of 100% and a residual activity [9] of 65%. It also gave a residual activity [10] of 96%, a residual activity [11] of 95% and a residual activity [12] of 100%. It also gave a residual activity [13] of 98%, an inhibition [14] of 11.5% and a residual activity [15] of 46%. It also gave a residual activity [16] of 100%, a residual activity [17] of 100% and a residual activity [18] of 100%. The residual activity [19] was 100%, the residual activity [20] was 74% and the residual activity [21] was 100%. The residual activity [22] was 96%, the residual activity [23] was 79% and the residual activity [24] was 100%. It also gave a residual activity [25] of 90%, a residual activity [26] of 72% and a residual activity [27] of 95%. For the same molecule, the residual activity [28] was 100%, the residual activity [29] was 78% and the residual activity [30] was 99%. It also gave a residual activity [31] of 96%, an inhibition [32] of 6.09% and a residual activity [33] of 85%. For the same molecule, the residual activity [34] was 96%, the residual activity [35] was 99% and the residual activity [36] was 100%. It also gave a residual activity [37] of 82%, a residual activity [38] of 87% and a residual activity [39] of 81%. For the same molecule, the residual activity [40] was 100%, the residual activity [41] was 90% and the residual activity [42] was 71%. It also gave a residual activity [43] of 86%, a residual activity [44] of 100% and a residual activity [45] of 55%.
